As a reminder, the Ki is a measure of affinity in units of concentration, obtained from inhibition or displacement. Low readings indicate a stronger hold on the target, high ones a looser hold on the target.

The values that follow come from ChEMBL document CHEMBL1149926, “Synthesis of 7-substituted androstenediones by a 1,4-conjugate addition approach” (Bioorg Med Chem Lett, 1995).

The experiment concerns the target T1, Aromatase (Homo sapiens, UniProt P11511).
T1 sequence (P11511 whole entry): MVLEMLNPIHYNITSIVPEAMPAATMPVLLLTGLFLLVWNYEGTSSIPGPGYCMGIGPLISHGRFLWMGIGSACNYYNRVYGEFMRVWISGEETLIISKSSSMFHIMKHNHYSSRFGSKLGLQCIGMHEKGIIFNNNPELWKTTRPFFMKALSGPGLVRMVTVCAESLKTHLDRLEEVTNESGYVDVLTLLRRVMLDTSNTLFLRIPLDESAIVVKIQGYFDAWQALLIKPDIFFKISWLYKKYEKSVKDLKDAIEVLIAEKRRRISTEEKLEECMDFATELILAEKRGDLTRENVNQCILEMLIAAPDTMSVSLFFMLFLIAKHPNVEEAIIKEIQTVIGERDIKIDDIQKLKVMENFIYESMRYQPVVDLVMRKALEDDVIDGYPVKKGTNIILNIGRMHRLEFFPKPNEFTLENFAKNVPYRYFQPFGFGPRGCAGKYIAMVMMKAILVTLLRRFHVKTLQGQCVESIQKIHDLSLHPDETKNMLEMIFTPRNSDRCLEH
Put plainly: Inhibition of aromatase cytochrome P450 19A1.
The compound `C[C@]12C=CC(=O)C=C1C[C@@H](Sc1ccc(N)cc1)[C@@H]1[C@@H]2CC[C@]2(C)C(=O)CC[C@@H]12` registered a Ki of 10 nM. As for `C[C@]12CCC(=O)C=C1C[C@@H](CCc1ccccc1)[C@@H]1[C@@H]2CC[C@]2(C)C(=O)CC[C@@H]12`, the affinity, expressed as Ki, was 16.5 nM. In the case of `C[C@]12CCC(=O)C=C1C[C@@H](Cc1ccccc1)[C@@H]1[C@@H]2CC[C@]2(C)C(=O)CC[C@@H]12` it was 13.1 nM.
